# Article PMC12035797, “Peptidomimetics Activating the Proteasome: A New Perspective for Parkinson’s Treatment” (Journal of Medicinal Chemistry, 2025)
# How the values were obtained:
# [1] = test system: human 20S proteasome (Tau-441 substrate); assay: Tau-441 degradation by h20S (SDS-PAGE); type: biochemical; details: 10 μM modulator, 37 °C, 1.5 h
# Experimental: The effectiveness of the compounds has also been examined by using proteins as substrates. By means of SDS-PAGE electrophoresis, we checked the extent to which model proteins were digested by the 20S proteasome alone and after its stimulation by 10 μM modulators. […] After incubation with the enzyme in the presence of each modulator, less than 40% of synuclein remained. […] The experiment was performed as it was described.[36] Briefly, α-synuclein (rPeptide, […], USA) and Tau-441 (Novus Biologicals, Centennial, CO, USA) were dissolved in 20 mM HEPES buffer (pH 7.4) and mixed with a human 20S proteasome. Samples were incubated at 37 °C for 1.5 h, after which the reaction was terminated by adding 4× Laemmli buffer. The levels of undigested proteins were evaluated by SDS-PAGE. The band intensities of proteins incubated with […] in the presence of a modulator were compared to those of proteins incubated with the enzyme alone, which were set as 100%. Three independent experiments were performed for each protein. The results are presented as the means ± SD. One-way ANOVA with Tukey's post-hoc test was used to determine statistical significance.
# [2] = test system: endogenous α-synuclein in primary cortical cultures; assay: Endogenous α-synuclein level in primary cortical cultures (Simple Western Jess); type: cell-based, mouse; details: 2.5 μM, 7 days; statistical significance only for 1g
# Experimental: The effectiveness of the compounds has also been examined by using proteins as substrates. By means of SDS-PAGE electrophoresis, we checked the extent to which model proteins were digested by the 20S proteasome alone and after its stimulation by 10 μM modulators. […] After incubation with the enzyme in the presence of each modulator, less than 40% of synuclein remained. […] All animal experiments were performed following the protocols evaluated and approved by the Laboratory Animal Centre of the University of Helsinki (Ethics Approval License KEK24-013) and in accordance with the European Community Guidelines (Directive 2010/63/EU). […] The viability and number of neuronal cells were calculated automatically in an Automated Cell Counter (Bio-Rad), plated at a density of 1,000,000 cells per well on 6-well plates and cultured in Neurobasal A Medium (Thermo Fisher Scientific (Gibco), #12349015, Waltham, MA, USA) supplemented with GlutaMAX (Thermo Fisher Scientific (Gibco) #A1286001, Waltham, MA, USA), B-27 Supplement (Thermo Fisher Scientific (Gibco), #17504001, Waltham, MA, USA), and 200 ng/mL Primocin (Invitrogen, ant-pm-1, San Diego, CA, USA). […] Protein concentrations in the cell lysates were determined using a bicinchoninic acid (BCA) assay (Sigma-Aldrich, 3B9643-1L-KC, MO, USA) according to the manufacturer’s instructions. […]
smiles,measurement,setting,value
C[C@@H](O)[C@H](NC(=O)[C@H](Cc1ccccc1)NC(=O)[C@H](Cc1ccc(O)cc1)NC(=O)CN(CCCCN)C(=O)[C@H](CCCNC(=N)N)NC(=O)[C@H](CCCNC(=N)N)NC(=O)[C@H](CCCNC(=N)N)NC(=O)[C@H](CCC(N)=O)NC(=O)[C@H](CCCNC(=N)N)NC(=O)[C@H](CCCNC(=N)N)NC(=O)[C@H](CCCCN)NC(=O)[C@H](CCCCN)NC(=O)[C@@H](N)CCCNC(=N)N)C(=O)NCC(=O)N[C@@H](CO)C(=O)N[C@@H](CCCCN)C(=O)N[C@@H](CC(=O)O)C(=O)N[C@@H](Cc1c[nH]c2ccccc12)C(=O)N[C@@H](CCCNC(=N)N)C(=O)N[C@@H](CO)C(=O)N[C@@H](Cc1ccc(O)cc1)C(=O)N[C@@H](Cc1ccc(O)cc1)C(=O)N[C@@H](CO)C(=O)O [1f],Tau protein digested by h20S,[1],more than 90%
same,effect on endogenous α-synuclein in primary cortical cultures,[2],able to reduce the amount of endogenous α-synuclein
